Reference: publication PMC6934184, “Selective DNA-PKcs inhibition extends the therapeutic index of localized radiotherapy and chemotherapy” (The Journal of Clinical Investigation, 2019)

Biological target: T1, MYO3B (MYO3 beta) (Homo sapiens, UniProt Q8WXR4)
T1 construct: purchased Thermo Fisher Scientific (Life Technologies) SelectScreen
Assay: SelectScreen LanthaScreen
Assay type: binding
Details: read-out: % displacement
Summary of the method: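 NU5455 was profiled across the SelectScreen Broad panel of kinase activity and binding assays. Z'LYTE reactions such as CSF1R ran at apparent Km ATP, while the Adapta CAMK1 assay used ATP listed as 10. Values are given as percent.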

T1 sequence (Q8WXR4 whole entry): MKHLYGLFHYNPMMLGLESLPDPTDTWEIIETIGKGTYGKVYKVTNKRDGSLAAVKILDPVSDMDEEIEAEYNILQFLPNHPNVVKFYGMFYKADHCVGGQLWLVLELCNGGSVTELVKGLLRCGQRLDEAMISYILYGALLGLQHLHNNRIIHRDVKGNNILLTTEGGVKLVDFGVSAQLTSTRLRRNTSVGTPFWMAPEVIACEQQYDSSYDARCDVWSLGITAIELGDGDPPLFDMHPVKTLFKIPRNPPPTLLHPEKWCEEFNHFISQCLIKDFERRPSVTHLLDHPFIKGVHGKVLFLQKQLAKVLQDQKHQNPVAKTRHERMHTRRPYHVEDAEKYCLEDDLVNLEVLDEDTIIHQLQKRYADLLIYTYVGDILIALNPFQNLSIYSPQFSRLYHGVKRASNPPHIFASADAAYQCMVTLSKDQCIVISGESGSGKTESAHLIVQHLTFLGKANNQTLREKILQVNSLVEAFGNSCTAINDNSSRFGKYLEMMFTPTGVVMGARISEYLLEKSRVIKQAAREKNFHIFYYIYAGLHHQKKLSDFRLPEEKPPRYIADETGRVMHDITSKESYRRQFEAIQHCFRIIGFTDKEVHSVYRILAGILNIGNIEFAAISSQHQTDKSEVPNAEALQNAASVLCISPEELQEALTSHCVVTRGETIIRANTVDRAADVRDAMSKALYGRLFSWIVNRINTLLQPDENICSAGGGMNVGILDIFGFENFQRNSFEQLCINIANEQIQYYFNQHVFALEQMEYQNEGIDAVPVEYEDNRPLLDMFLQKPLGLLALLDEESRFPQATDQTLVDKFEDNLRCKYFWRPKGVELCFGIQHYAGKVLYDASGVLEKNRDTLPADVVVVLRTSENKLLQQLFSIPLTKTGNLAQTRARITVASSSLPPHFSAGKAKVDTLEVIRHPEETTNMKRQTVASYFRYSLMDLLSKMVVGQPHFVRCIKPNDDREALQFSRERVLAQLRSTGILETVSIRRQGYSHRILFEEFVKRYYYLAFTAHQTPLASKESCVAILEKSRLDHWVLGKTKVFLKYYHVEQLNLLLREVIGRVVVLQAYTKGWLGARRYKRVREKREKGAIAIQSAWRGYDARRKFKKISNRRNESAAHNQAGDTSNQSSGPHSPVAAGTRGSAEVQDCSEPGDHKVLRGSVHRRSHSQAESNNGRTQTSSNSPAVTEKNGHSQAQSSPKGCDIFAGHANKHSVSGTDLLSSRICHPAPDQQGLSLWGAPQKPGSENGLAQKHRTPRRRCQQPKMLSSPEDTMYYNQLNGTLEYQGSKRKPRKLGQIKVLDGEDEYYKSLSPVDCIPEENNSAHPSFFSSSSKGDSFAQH

CN(C(=O)CN1CCOCC1)c1ccc2sc3c(-c4cccc5c(=O)cc(N6CC7CCC(C6)O7)oc45)cccc3c2c1 [NU5455] gave an inhibition at 1 µM of 2.3%.
